Test results published in US20260102407A1, “TREATMENT METHODS” (priority 2020, published 2026).

Assays:
FosB/ΔFosB = assay: Western blot, serum-inducible FosB/ΔFosB expression in HMEC-1; format: cell-based, human; details: 30 μM compound, 10% FBS 1 h
Method: Western blot analysis with extracts of cells treated with serum. HMEC-1 (80-90% confluency) were arrested in serum-free MCDB131 medium without EGF or hydrocortisone for 20 h. Cells were treated with 30 μM compound in serum-free MCDB131 medium for 4 h, and the medium was changed to complete medium (with 10% FBS with EGF and hydrocortisone) with 30 μM compound for 1 h. Total protein was harvested as previously described in radioimmunoprecipitation (RIPA) lysis buffer with protease inhibitors (Li, Y., et al., Int J Cardiol 220, 185-191 (2016)). Proteins were resolved on 4-20% (w/v) sodium dodecyl sulfate (SDS)-polyacrylamide gradient gels (Bio-Rad Mini-PROTEAN TGX) and transferred to Immobilon-P PVDF membranes (Millipore, USA). Membranes were blocked with 5% skim milk and incubated with rabbit monoclonal FosB (cat. 2251, 1:1000, Cell Signaling, USA), rabbit monoclonal c-Fos antibodies (cat. 2250, 1:1000, Cell Signaling, USA) at 4° C. overnight or mouse monoclonal […] antibodies (cat. A5316, 1:30000, Sigma-Aldrich) at 22° C. for 15 min then incubated with a horseradish peroxidase conjugated secondary goat anti-rabbit (cat. P0448, 1:1000, DAKO Cytomation, Denmark) or goat anti-mouse (cat. P0447, 1:1000, DAKO Cytomation, Denmark) antibodies for 1 h. Chemiluminescence was detected using the Western Lightning Chemiluminescence system (PerkinElmer, USA) and ImageQuant™ LAS 4000 biomolecular imager (GE Healthcare Life Sciences, USA). Band intensity in images generated with the LAS 4000 on automatic exposure with sensitivity/resolution setting high was quantified using NIH ImageJ.

HY79b pigmented rabbits = assay: Rabbit retinal vascular hyperpermeability model induced by rhVEGF-A165; format: in vivo
Method: Rabbit retinal vascular hyperpermeability model. Male HY79b pigmented rabbits (8-12 week-old) were anesthetized by an intramuscular injection of Rompun® (xylazine)/Imalgene® (ketamine). Compound (600 μg BT2, BT3 or saline vehicle containing 0.5% Tween 80 and 10% DMSO vehicle in 100 μl) was injected into the right eye 5d prior to rhVEGF-A165 induction. Injections were performed on anesthetized animals under an operating microscope using a 250 μl Hamilton syringe (fitted with 30G needle). Retinal vascular permeability was induced by a single 50 μl IVT injection of 500 ng rhVEGF-A165 (diluted in PBS with carrier protein) into the right eye. Forty-seven hours (+/−3 h) after induction, sodium fluorescein (10% in saline, 50 mg/kg) was injected into the marginal ear vein. One hour after fluorescein injection, animals were anaesthetized and pupils were dilated by instillation of one drop of 0.5% tropicamide. Ocular fluorescence in both eyes was measured with a FM-2 Fluorotron Master ocular fluorophotometer. Animals were euthanized by injection of pentobarbital.

[1] = target: T1, Recombinant human His-MEK2 (Homo sapiens, UniProt P36507); assay: SPR (Biacore T200) on immobilised His-MEK2; format: binding; details: 15° C.; 20 mM HEPES, 150 mM NaCl, 5% DMSO pH 7.4
T1 construct: purchased ThermoFisher Scientific PV3615
T1 sequence (P36507 whole entry): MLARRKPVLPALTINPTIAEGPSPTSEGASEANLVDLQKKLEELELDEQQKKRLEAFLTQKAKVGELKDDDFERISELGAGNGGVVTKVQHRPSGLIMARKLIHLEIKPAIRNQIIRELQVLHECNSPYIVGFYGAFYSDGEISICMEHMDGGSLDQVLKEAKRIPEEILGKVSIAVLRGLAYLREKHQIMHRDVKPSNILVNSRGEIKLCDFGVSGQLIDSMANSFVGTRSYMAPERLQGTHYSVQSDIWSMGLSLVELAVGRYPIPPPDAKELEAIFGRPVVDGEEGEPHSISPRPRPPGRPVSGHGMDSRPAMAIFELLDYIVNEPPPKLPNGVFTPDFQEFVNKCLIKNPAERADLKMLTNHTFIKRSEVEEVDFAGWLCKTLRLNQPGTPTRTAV
Method: SPR. SPR was performed on a Biacore T200. The active and reference flow cells of a Xantec NIHMC Ni sensor chip were conditioned with 0.5M NaEDTA followed by 5 mM NiCl2 in immobilisation buffer (20 mM HEPES, 150 mM NaCl, pH 7.4). Recombinant human His-MEK1 and His-MEK2 (500 nM, ThermoFisher Scientific, cat. PV3303 and PV3615, respectively) were injected for 15 min at 10 μl min^−1 over separate active flow cells. All immobilisation was carried out at 25° C. Following immobilisation, the temperature was lowered to 15° C., and the buffer changed to 20 mM HEPES, 150 mM NaCl, 5% DMSO pH 7.4. Samples of PD98059 (2.5-30 μM in running buffer) and BT2 (1.25-15 μM) were injected at a flow rate of 30 μl min^−1 over immobilised MEK1 and MEK2. Solvent correction was applied to the data using a DMSO standard curve. Data were analysed using the Biacore T200 Evaluation software. Prior to SPR, limits of compound solubility were determined using ^1H 1D NMR.

[2] = Solubility on dilution in medium containing serum; format: physicochemical
ICAM-1 = assay: Collagen antibody-induced arthritis, hind limb immunohistochemistry for ICAM-1; format: in vivo, mouse; details: CAIA mice; Day 14 hind limbs
Method: Collagen antibody-induced arthritis. Arthritis was induced in female Balb/c mice (6-8 week-old) as previously described with a commercially obtained cocktail of 5 monoclonal antibodies to type II collagen at 2 mg/mouse (Chondrex, Inc. Redmond, WA) followed by LPS (50 μg/mouse) with or without BT2 (3 or 30 mg/kg mouse) in DMSO vehicle was administered i.p. on Day 3. Hind footpad thickness was measured on Day 9 using digital calipers. Mice were sacrificed on Day 14 and microCT scanning of hind limbs was performed.
Immmunohistochemical staining of hind limbs for VCAM-1 and ICAM-1 and analysis. Formalin-fixed, paraffin embedded of hind limbs were sectioned (5 μm). Dako EnVision Rabbit Kit (cat. K4011, Dako) was used for immmunohistochemical staining for VCAM-1 and ICAM-1. […] Integrated optical density (IOD) of positive staining in ankle joint (tibia and talus) articular cartilage was assessed for VCAM-1 and ICAM-1 using Image-Pro Plus software (Cybernetics, Bethesda, MD, USA). Area (μm^2) of ankle joint articular cartilage was measured using Image-Pro Plus software. Total cell number and positive staining cell number in ankle joint articular cartilage were counted manually using Image-Pro Plus software. […]

| Structure (SMILES) | serum-inducible FosB/ΔFosB expression (Western blot) (FosB/ΔFosB) | inhibition of retinal leakage induced by rhVEGF-A165 (HY79b pigmented rabbits; single IVT 600 μg, 5 d before induction, after 2 days) [%] | binding to His-MEK2 (SPR) [1] | effect of serum in the diluent on solubility ([2]; adding serum to the diluent) | ICAM-1 expression in bone (ICAM-1) | effect on retinal vascular leakage induced by rhVEGF-A165 (HY79b pigmented rabbits; IVT 600 μg, fluorescence ratio R/L) | solubility relative to BT2 and analogues ([2]; dilution in medium containing serum) |
| --- | --- | --- | --- | --- | --- | --- | --- |
| CCOC(=O)Nc1ccc2c(c1)C(=O)N(CC)c1ccccc1O2 [BT2, (10-ethyl-11-oxo-10,11-dihydro-dibenzo[b,f][1,4]oxazepin-2-yl)-carbamic acid ethyl ester] | blocked the inducible expression of FosB and ΔFosB | ~50 | bound to His-MEK1 significantly better than to His-MEK2 | increased BT2 solubility | inhibit VCAM-1 and ICAM-1 expression |  |  |
| CCN1C(=O)c2cc(N)ccc2Oc2ccccc21 [BT3, 2-amino-10-ethyldibenzo[b,f][1,4]oxazepin-11 (10H)-one] | no inhibition |  | no appreciable binding |  |  | inactive | the most soluble of all these dibenzoxazepinones |
